Read-outs that look alike come from different tables or passages of the source.
Assays:
HIV-IIIb (wildtype) = assay: Antiviral assay in MT4 cells, HIV-IIIb wildtype; assay type: cell-based, HIV-1; settings: read-out: WT EC50
Method in brief: (§1)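 Luminescence from CellTiter-Glo after a 5-day culture served as the measure of HIV-1 replication in MT4 cells. Cells were infected beforehand for 3 h with HIV-IIIb (0.004 m.o.i.) and exposed to ten 3-fold compound dilutions. EC50 corresponds to a 50% signal decrease.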

[1] = Hum MS stability (human microsomal stability half-life); settings: human microsomes
HIV-IIIb IN T174I BT = assay: Antiviral assay in MT4 cells, HIV-IIIb IN T174I BT virus (from viral breakthrough); assay type: cell-based, HIV-1
Method in brief: as §1

HIV-IIIb IN T174I DE = assay: Antiviral assay in MT4 cells, HIV-IIIb IN T174I DE virus (from dose escalation passaging); assay type: cell-based, HIV-1
Method in brief: as §1

[2] = Human immunodeficiency virus 1, IIIB, MT4, 120 h
[3] = Human immunodeficiency virus 1, IIIB, MT4, 120 h, read-out: T174I BT EC50, MT4 cells, HIV-IIIb IN T174I BT (viral breakthrough), 5 days, CellTiter-Glo
[4] = Human immunodeficiency virus 1, IIIB, MT4, 120 h, read-out: T174I DE EC50, MT4 cells, HIV-IIIb IN T174I DE (dose escalation), 5 days, CellTiter-Glo
[5] = MT4 cells, HIV-IIIb wildtype, 5 days, CellTiter-Glo
[6] = MT4 cells, HIV-IIIb IN T174I BT (viral breakthrough), 5 days, CellTiter-Glo, read-out: T174I BT EC50
[7] = MT4 cells, HIV-IIIb IN T174I DE (dose escalation), 5 days, CellTiter-Glo, read-out: T174I DE EC50

Compound: COCCN1CCC(c2nn(C)c3ccc(-c4nc5cc(C)c([C@H](OC(C)(C)C)C(=O)O)c(-c6ccc(Cl)cc6)c5s4)cc23)C1 (single isomer, unassigned) [Compound 69]
- EC50 (HIV-IIIb (wildtype); [2]): 5 nM
- half-life [1]: 5.72 h
- EC50 (HIV-IIIb IN T174I BT; [3]): 972 nM
- EC50 (HIV-IIIb IN T174I DE; [4]): 1150 nM

Compound: Cc1cc2nc(-c3ccc4c(c3)c(C3CCN(C5CCOC5)CC3)nn4C)sc2c(-c2ccc(Cl)cc2)c1[C@H](OC(C)(C)C)C(=O)O (stereo in doubt) [Compound 26, (S)-2-(tert-butoxy)-2-(7-(4-chlorophenyl)-5-methyl-2-(1-methyl-3-(1-((S)-tetrahydrofuran-3-yl)piperidin-4-yl)-1H-indazol-5-yl)benzo[d]thiazol-6-yl)acetic Acid]
- EC50 (HIV-IIIb (wildtype); [2]): 4 nM
- half-life [1]: 4.68 h
- EC50 (HIV-IIIb IN T174I BT; [3]): 129 nM
- EC50 (HIV-IIIb IN T174I DE; [4]): 270 nM

Compound: Cc1cc2nc(-c3ccc4c(c3)c(C3CCN(C5CCOC5)CC3)nn4C)sc2c(-c2ccc(Cl)cc2)c1[C@H](OC(C)(C)C)C(=O)O (stereo in doubt) [Compound 27, (S)-2-(tert-butoxy)-2-(7-(4-chlorophenyl)-5-methyl-2-(1-methyl-3-(1-((R)-tetrahydrofuran-3-yl)piperidin-4-yl)-1H-indazol-5-yl)benzo[d]thiazol-6-yl)acetic Acid]
- EC50 (HIV-IIIb (wildtype); [2]): 4 nM
- half-life [1]: 4.17 h
- EC50 (HIV-IIIb IN T174I BT; [3]): 154 nM
- EC50 (HIV-IIIb IN T174I DE; [4]): 245 nM

Compound: Cc1cc2nc(-c3ccc4c(c3)c(C3CCN(C5COC5)CC3)nn4C)sc2c(-c2ccc(Cl)cc2)c1[C@H](OC(C)(C)C)C(=O)O [Compound 1, (S)-2-(tert-butoxy)-2-(7-(4-chlorophenyl)-5-methyl-2-(1-methyl-3-(1-(oxetan-3-yl)piperidin-4-yl)-1H-indazol-5-yl)benzo[d]thiazol-6-yl)acetic Acid]
- EC50 (HIV-IIIb (wildtype); Human immunodeficiency virus 1, 120 h, MT4 cells, HIV-IIIb wildtype, 5 days, CellTiter-Glo): 5 nM
- half-life [1]: 5.83 h
- EC50 (HIV-IIIb IN T174I BT; [3]): 143 nM
- EC50 (HIV-IIIb IN T174I DE; [4]): 315 nM

Compound: COC1CN(c2nn(C)c3ccc(-c4nc5cc(C)c([C@H](OC(C)(C)C)C(=O)O)c(-c6ccc(Cl)cc6)c5s4)cc23)C1 [Compound 2, (S)-2-(tert-butoxy)-2-(7-(4-chlorophenyl)-2-(3-(3-methoxyazetidin-1-yl)-1-methyl-1H-indazol-5-yl)-5-methylbenzo[d]thiazol-6-yl)acetic Acid]
- EC50 (HIV-IIIb (wildtype); [2]): 7 nM
- half-life [1]: 1.82 h
- EC50 (HIV-IIIb IN T174I BT; [3]): 1020 nM
- EC50 (HIV-IIIb IN T174I DE; [4]): 2580 nM

Compound: Cc1cc2nc(-c3ccc4c(c3)c(C3CCN(C(=O)[C@H]5CCCO5)CC3)nn4C)sc2c(-c2ccc(Cl)cc2)c1[C@H](OC(C)(C)C)C(=O)O [Compound 9, (S)-2-(tert-butoxy)-2-(7-(4-chlorophenyl)-5-methyl-2-(1-methyl-3-(1-((R)-tetrahydrofuran-2-carbonyl)piperidin-4-yl)-1H-indazol-5-yl)benzo[d]thiazol-6-yl)acetic Acid]
- EC50 (HIV-IIIb (wildtype); [2]): 9 nM
- half-life [1]: 4.17 h
- EC50 (HIV-IIIb IN T174I BT; [3]): 237 nM
- EC50 (HIV-IIIb IN T174I DE; [4]): 511 nM

Compound: Cc1cc2nc(-c3ccc4c(c3)c(C3CCN(C5CS(=O)(=O)C5)CC3)nn4C)sc2c(-c2ccc(Cl)cc2)c1[C@H](OC(C)(C)C)C(=O)O [Compound 10, (S)-2-(tert-butoxy)-2-(7-(4-chlorophenyl)-2-(3-(1-(1,1-dioxidothietan-3-yl)piperidin-4-yl)-1-methyl-1H-indazol-5-yl)-5-methylbenzo[d]thiazol-6-yl)acetic Acid]
- EC50 (HIV-IIIb (wildtype); [2]): 10 nM
- half-life [1]: 3.58 h
- EC50 (HIV-IIIb IN T174I BT; [3]): 275 nM
- EC50 (HIV-IIIb IN T174I DE; [4]): 303 nM

Compound: Cc1cc2nc(-c3ccc4c(n3)c(N3CCN(C5COC5)CC3)nn4C)sc2c(-c2ccc(Cl)cc2)c1[C@H](OC(C)(C)C)C(=O)O [Compound 15, (S)-2-(tert-butoxy)-2-(7-(4-chlorophenyl)-5-methyl-2-(1-methyl-3-(4-(oxetan-3-yl)piperazin-1-yl)-1H-pyrazolo[4,3-b]pyridin-5-yl)benzo[d]thiazol-6-yl)acetic Acid]
- EC50 (HIV-IIIb (wildtype); [2]): 4 nM
- half-life [1]: 2.83 h
- EC50 (HIV-IIIb IN T174I BT; [3]): 657 nM
- EC50 (HIV-IIIb IN T174I DE; [4]): 3070 nM

Compound: Cc1cc2nc(-c3cnc4c(c3)c(C3CCN(C5COC5)CC3)cn4C)sc2c(-c2ccc(Cl)cc2)c1[C@H](OC(C)(C)C)C(=O)O [Compound 17, (S)-2-(tert-butoxy)-2-(7-(4-chlorophenyl)-5-methyl-2-(1-methyl-3-(1-(oxetan-3-yl)piperidin-4-yl)-1H-pyrrolo[2,3-b]pyridin-5-yl)benzo[d]thiazol-6-yl)acetic Acid]
- EC50 (HIV-IIIb (wildtype); [2]): 8 nM
- half-life [1]: 4.7 h
- EC50 (HIV-IIIb IN T174I BT; [3]): 238 nM
- EC50 (HIV-IIIb IN T174I DE; [4]): 786 nM

Compound: Cc1cc2nc(-c3ccc4c(c3)c(C3CCOCC3)nn4C)sc2c(-c2ccc(Cl)cc2)c1[C@H](OC(C)(C)C)C(=O)O [Compound 19, (S)-2-(tert-butoxy)-2-(7-(4-chlorophenyl)-5-methyl-2-(1-methyl-3-(tetrahydro-2H-pyran-4-yl)-1H-indazol-5-yl)benzo[d]thiazol-6-yl)acetic Acid]
- EC50 (HIV-IIIb (wildtype); [2]): 12 nM
- half-life [1]: 4.15 h
- EC50 (HIV-IIIb IN T174I BT; [3]): 1170 nM
- EC50 (HIV-IIIb IN T174I DE; [4]): 2780 nM

Compound: Cc1cc2nc(-c3ccc4c(c3)c(N3CCN(C5(C)COC5)CC3)nn4C)sc2c(-c2ccc(Cl)cc2)c1[C@H](OC(C)(C)C)C(=O)O [Compound 207, (S)-2-(tert-butoxy)-2-(7-(4-chloro-phenyl)-5-methyl-2-(1-methyl-3-(4-(3-methyloxetan-3-yl)piperazin-1-yl)-1H-indazol-5-yl)benzo[d]thiazol-6-yl)acetic acid]
- EC50 (HIV-IIIb (wildtype); [2]): 4 nM
- EC50 (HIV-IIIb IN T174I BT; [3]): 380 nM
- EC50 (HIV-IIIb IN T174I DE; [4]): 693 nM

Compound: COC(=O)N1CC[C@@H](N2CCC(c3nn(C)c4ccc(-c5nc6cc(C)c([C@H](OC(C)(C)C)C(=O)O)c(-c7ccc(Cl)cc7)c6s5)nc34)CC2)C1 [Compound 208, (S)-2-(tert-butoxy)-2-(7-(4-chloro-phenyl)-2-(3-(1-((R)-1-(methoxy-carbonyl)pyrrolidin-3-yl)piperidin-4-yl)-1-methyl-1H-pyrazolo[4,3-b]pyridin-5-yl)-5-methylbenzo[d]thiazol-6-yl) acetic acid]
- EC50 (HIV-IIIb (wildtype); [2]): 2 nM
- EC50 (HIV-IIIb IN T174I BT; [3]): 54 nM
- EC50 (HIV-IIIb IN T174I DE; [4]): 206 nM

Compound: (S)-2-(2-(3-(1- ((R)-1-acetyl- pyrrolidin-3-yl) piperidin-4-yl)- 1-methyl-1H- pyrazolo[4,3-b] pyridin-5-yl)-7- (4-chlorophenyl)- 5-methylbenzo[d] thiazol-6-yl)-2- (tert-butoxy) acetic acid [Compound 169]
- EC50 (HIV-IIIb (wildtype); [5]): 2 nM
- EC50 (HIV-IIIb IN T174I BT; [6]): 36 nM
- EC50 (HIV-IIIb IN T174I DE; [7]): 86 nM

Compound: (S)-2-(tert-butoxy)- 2-(7-(4-chloro- phenyl)-2-(3-(1- ((S)-1-(methoxy- carbonyl) pyrrolidin- 3-yl)piperidin-4- yl)-1-methyl-1H- pyrrolo[2,3-b] pyridin-5-yl)-5- methylbenzo[d] thiazol-6-yl) acetic acid [Compound 202]
- EC50 (HIV-IIIb (wildtype); [5]): 7 nM
- EC50 (HIV-IIIb IN T174I BT; [6]): 157 nM
- EC50 (HIV-IIIb IN T174I DE; [7]): 680 nM

Compound: (S)-2-(tert-butoxy)- 2-(7-(4-chloro- phenyl)-2-(3-(1-(2- (dimethylamino) ethyl)piperidin-4- yl)-1-methyl-1H- indazol-5-yl)-5- methylbenzo[d] thiazol-6-yl) acetic acid [Compound 130]
- EC50 (HIV-IIIb (wildtype); [5]): 12 nM
- EC50 (HIV-IIIb IN T174I BT; [6]): 122 nM
- EC50 (HIV-IIIb IN T174I DE; [7]): 232 nM

Compound: (S)-2-(tert-butoxy)- 2-(7-(4-chloro- phenyl)-2-(3-((R)- hexahydropyrazino [2,1-c][1,4]oxazin- 8(1H)-yl)-1-methyl- 1H-indazol-5-yl)- 5-methylbenzo[d] thiazol-6-yl)acetic acid [Compound 135]
- EC50 (HIV-IIIb (wildtype); [5]): 10 nM
- EC50 (HIV-IIIb IN T174I BT; [6]): 399 nM
- EC50 (HIV-IIIb IN T174I DE; [7]): 1060 nM

Source: patent US10800772B2 (Gilead Sciences, Inc., priority 2016, dated 2020)
